# EP4813984A1 (Jiangsu Hengrui Pharmaceuticals Co., Ltd., priority 2023, dated 2025)
# Assays:
# hGLP-1 receptor = biological target: T1, hGLP-1 receptor (Homo sapiens, UniProt P43220); assay: Agonist activity against GLP-1 receptor (CRE-luciferase reporter, ONE-Glo Luciferase Assay System); format: cell-based; conditions: CHO-K1/CRE-luc/hGLP-1 receptor cells; 5 h incubation with compound; chemiluminescence readout
# T1 construct: expressed in transfected cells; host or cells: CHO-K1 (stably transfected with hGLP-1 receptor plasmid and CRE-luc plasmid)
# Description: This experiment was intended to test the agonist activity of compound molecules against hGLP-1 receptor and evaluate the in vitro activity of the molecules according to EC50. In this experiment, ONE-Glo™ Luciferase Assay System (ONE-Glo™ Luciferase Assay System, Promega, E6110) was used. Under the action of the compound molecules, GLP-1R downstream signaling pathways were activated to cause elevated cAMP level. The binding of cAMP to CRE could initiate the transcriptional expression of a CRE downstream luciferase gene. The luciferase could emit fluorescence when reacting with a substrate thereof. The fluorescence signal, which reflected the activity of the compound for agonizing GLP-1 receptor, was measured by means ONE-Glo™ reagent.
# A stably transfected CHO-K1/CRE-luc/hGLP-1 receptor cell strain (hGLP-1 receptor plasmid constructed in-house and CRE-luc plasmid Promega E8471) was constructed. CHO-K1/CRE-luc/hGLP-1 receptor cells were digested, centrifuged, and then resuspended. The single cell suspension was uniformly mixed and adjusted to a viable cell density of 2.78 × 10^5 cells/ml with a cell culture medium (DME/F-12 + 10% FBS). The resulting solution was added to a 96-well cell culture plate at 90 µL/well (Corning, #3903). The culture plate was incubated in an incubator for 16 h (37°C, 5% CO2).
# The compound was dissolved in DMSO to prepare a stock solution with an initial concentration of 20 mM. The starting concentration of the small molecule compound was 0.02 mM. The compound was subjected to 3-fold dilution for 10 points, wherein the 11th point was DMSO. Another 96-well plate was taken, to which was added 95 µL/well of a cell culture medium (DME/F-12 + 10% FBS), followed by 5 µL/well of test samples with different concentrations. The mixtures were uniformly mixed. Next, 10 µL/well of test samples with different concentrations were added to the cell culture plate, with two duplicate wells for each sample. The culture plate was incubated in an incubator for 5 h (37°C, 5% CO2). The 96-well cell culture plate was taken out. 100 µL/well of ONE-Glo™ reagent was added, followed by incubation at room temperature for 10 minutes. Chemiluminescence was measured in and by a microplate reader (PHERAstar FS, BMG labtech).
# Data were processed and analyzed using Microsoft Excel and Graphpad Prism 10. EC50 values of the compounds were obtained. Table 1. Agonist activity of the compounds of the present invention against hGLP-1 receptor
# [1] = Pharmacokinetic evaluation in monkeys after intragastric gavage (plasma LC-MS/MS); format: in vivo; conditions: both sexes, cynomolgus monkey, po, i.g., 1 mg/kg
# Description: Using cynomolgus monkeys as test animals, the plasma concentrations of the example compounds at different time points were determined by an LC-MS/MS method following administration to the monkeys by intragastric gavage (i.g.). The pharmacokinetic behaviors of the compounds of the present invention in monkeys were investigated, and the pharmacokinetic profiles thereof were evaluated.
# Compound 9: Three cynomolgus monkeys (two males and one female) were provided by Guangxi Nanning Tongling Shengwu Keji Youxian Gongsi, with production license SCXK Gui-2020-0002.
# Compound 9: A certain amount of the test compound was separately weighed. 5% DMSO + 30% PG + 30% PEG400 + 35% normal saline were added to prepare a 0.4 mg/mL colorless and clear solution.
# Compound 9: Administration dose was 1 mg/kg and administration volume was 2.5 mL/kg.
# 0.5 mL of blood samples were collected from the vein before administration and at 0.25, 0.5, 1.0, 2.0, 4.0, 6.0, 8.0, 11.0, and 24.0 hours after administration and placed in EDTA-K2 anticoagulant tubes, followed by centrifugation at 10000 rpm for 2 minutes (4°C). The plasma was separated within 1 hour and stored at -20°C or -80°C for analysis. The process from blood collection to centrifugation was operated under ice bath condition.
# Determination of test compound contents in […] after administration of different compounds: Compound 9: 50 µL of the monkey plasma sample collected at each time point after administration was taken. 25 µL of an internal standard acetonitrile solution (tolbutamide, 1 ug/mL) was added, followed by 450 µL of an acetonitrile solution. The mixture was vortexed and mixed, followed by centrifugation at 3700 rpm for 10 min. The supernatant was taken for LC-MS/MS analysis.
# T1 sequence (P43220 24-463): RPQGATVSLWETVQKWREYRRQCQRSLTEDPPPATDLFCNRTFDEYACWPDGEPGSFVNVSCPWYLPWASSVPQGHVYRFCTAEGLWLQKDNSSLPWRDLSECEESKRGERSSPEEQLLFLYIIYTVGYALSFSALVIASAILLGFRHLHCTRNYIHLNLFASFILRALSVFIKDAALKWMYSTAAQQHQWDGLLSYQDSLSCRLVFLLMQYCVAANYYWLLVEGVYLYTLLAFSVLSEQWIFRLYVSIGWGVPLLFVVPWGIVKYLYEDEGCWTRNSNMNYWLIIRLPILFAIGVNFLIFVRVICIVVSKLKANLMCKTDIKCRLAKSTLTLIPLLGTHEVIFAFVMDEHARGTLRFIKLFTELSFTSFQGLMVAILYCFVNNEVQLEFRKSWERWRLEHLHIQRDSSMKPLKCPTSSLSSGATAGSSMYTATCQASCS
Structure (SMILES),EC50 (hGLP-1 receptor),Emax (hGLP-1 receptor),further results
"Cc1cc(-n2nc3c(c2-c2cncn(-c4ccc5c(cnn5C5CC5)c4)c2=O)[C@H](C)N(C(=O)c2cc4cc([C@H]5CCOC(C)(C)C5)ccc4n2[C@@]2(c4noc(=O)[nH]4)C[C@@H]2C)CC3)cc(C)c1F [Compound 41, 3-((1S,2S)-1-(2-((S)-3-(1-(1-cyclopropyl-1H-indazol-5-yl)-6-oxo-1,6-dihydropyrimidin-5-yl)-2-(4-fluoro-3,5-dimethylphenyl)-4-methyl-4,5,6,7-tetrahydro-2H-pyrazolo[4,3-c]pyridine-5-carbonyl)-5-((S)-2,2-dimethyltetrahydro-2H-pyran-4-yl)-1H-indol-1-yl)-2-methylcyclopropyl)-1,2,4-oxadiazol-5(4H)-one]",0.05 nM,18.56 fold,
"Cc1cc(-n2nc3c(c2N2C[C@@H]4COc5cc6c(cnn6CC6CC6)c(F)c5N4C2=O)[C@H](C)N(C(=O)c2cc4cc([C@H]5CCOC(C)(C)C5)ccc4n2[C@@]2(c4noc(=O)[nH]4)C[C@@H]2C)CC3)cc(C)c1F [Compound 51, (R)-7-(cyclopropylmethyl)-2-((S)-5-(5-((S)-2,2-dimethyltetrahydro-2H-pyran-4-yl)-1-((1S,2S)-2-methyl-1-(5-oxo-4,5-dihydro-1,2,4-oxadiazol-3-yl)cyclopropyl)-1H-indole-2-carbonyl)-2-(4-fluoro-3,5-dimethylphenyl)-4-methyl-4,5,6,7-tetrahydro-2H-pyrazolo[4,3-c]pyridin-3-yl)-10-fluoro-2,3,3a,4-tetrahydro-1H,7H-imidazo[1',5':4,5][1,4]oxazino[3,2-f]indazol-1-one]",0.02 nM,21.19 fold,
"Cc1cc(-n2nc3c(c2N2C[C@@H]4COc5cc6c(cnn6C6CC6)c(F)c5N4C2=O)[C@H](C)N(C(=O)c2cc4cc([C@H]5CCOC(C)(C)C5)ccc4n2[C@@]2(c4noc(=O)[nH]4)C[C@@H]2C)CC3)cc(C)c1F [Compound 13, (R)-7-cyclopropyl-2-((S)-5-(5-((S)-2,2-dimethyltetrahydro-2H-pyran-4-yl)-1-((1S,2S)-2-methyl-1-(5-oxo-4,5-dihydro-1,2,4-oxadiazol-3-yl)cyclopropyl)-1H-indole-2-carbonyl)-2-(4-fluoro-3,5-dimethylphenyl)-4-methyl-4,5,6,7-tetrahydro-2H-pyrazolo[4,3-c]pyridin-3-yl)-10-fluoro-2,3,3a,4-tetrahydro-1H,7H-imidazo[1',5':4,5][1,4]oxazino[3,2-f]indazol-1-one]",0.01 nM,21.50 fold,
Cc1cc(-n2nc3c(c2-n2ccn(-c4ccc5c(cnn5C)c4F)c2=O)[C@H](C)N(C(=O)c2cc4cc5c(cc4n2[C@@]2(c4noc(=O)[nH]4)C[C@@H]2C)OCC52CCOCC2)CC3)cc(C)c1F [Compound 7],0.03 nM,14.46 fold,
"Cc1cc(-n2nc3c(c2-n2ccn(-c4ccc5c(cnn5C)c4F)c2=O)[C@H](C)N(C(=O)c2cc4cc5c(cc4n2[C@@]2(c4noc(=O)[nH]4)C[C@@H]2C)OCC2COCCC52)CC3)cc(C)c1F (stereo partly drawn) [Compound 4, 3-((1S,2S)-1-(9-((S)-3-(3-(4-fluoro-1-methyl-1H-indazol-5-yl)-2-oxo-2,3-dihydro-1H-imidazol-1-yl)-2-(4-fluoro-3,5-dimethylphenyl)-4-methyl-4,5,6,7-tetrahydro-2H-pyrazolo[4,3-c]pyridine-5-carbonyl)-1,4a,5,11b-tetrahydro-4H-pyrano[4',3':4,5]pyrano[3,2-f]indol-8(2H)-yl)-2-methylcyclopropyl)-1,2,4-oxadiazol-5(4H)-one]",0.39 nM,16.51 fold,
"Cc1cc(-n2nc3c(c2-c2cncn(-c4ccc5c(cnn5C)c4)c2=O)[C@H](C)N(C(=O)c2cc4cc([C@H]5CCOC(C)(C)C5)ccc4n2[C@@]2(c4noc(=O)[nH]4)C[C@@H]2C)CC3)cc(C)c1F [Compound 9, 3-((1S,2S)-1-(5-((S)-2,2-dimethyltetrahydro-2H-pyran-4-yl)-2-((S)-2-(4-fluoro-3,5-dimethylphenyl)-4-methyl-3-(1-(1-methyl-1H-indazol-5-yl)-6-oxo-1,6-dihydropyrimidin-5-yl)-4,5,6,7-tetrahydro-2H-pyrazolo[4,3-c]pyridine-5-carbonyl)-1H-indol-1-yl)-2-methylcyclopropyl)-1,2,4-oxadiazol-5(4H)-one]",0.06 nM,18.96 fold,Vd/F ([1]; read-out: Apparent volume of distribution Vz/F): 6.12 L/kg; AUC(0-t) ([1]; read-out: Area under the curve AUC0-t): 1180 ng·h/mL; bioavailability ([1]; read-out: Bioavailability F): 44.5%; CL/F ([1]; read-out: Clearance CL/F): 12.4 mL/min/kg; half-life ([1]; read-out: Half life T1/2 (converted)): 5.88 h; Cmax ([1]; read-out: Plasma concentration Cmax): 178 ng/mL
"Cc1cc(-n2nc3c(c2N2C[C@@H]4COc5cc6c(cnn6C(C)C)c(F)c5N4C2=O)[C@H](C)N(C(=O)c2cc4cc([C@H]5CCOC(C)(C)C5)ccc4n2[C@@]2(c4noc(=O)[nH]4)C[C@@H]2C)CC3)cc(C)c1F [Compound 40, (R)-2-((S)-5-(5-((S)-2,2-dimethyltetrahydro-2H-pyran-4-yl)-1-((1S,2S)-2-methyl-1-(5-oxo-4,5-dihydro-1,2,4-oxadiazol-3-yl)cyclopropyl)-1H-indole-2-carbonyl)-2-(4-fluoro-3,5-dimethylphenyl)-4-methyl-4,5,6,7-tetrahydro-2H-pyrazolo[4,3-c]pyridin-3-yl)-10-fluoro-7-isopropyl-2,3,3a,4-tetrahydro-1H,7H-imidazo[1',5':4,5][1,4]oxazino[3,2-f]indazol-1-one]",0.03 nM,19.36 fold,
"Cc1cc(-n2nc3c(c2N2C[C@@H]4COc5cc6c(cnn6CC(F)(F)F)c(F)c5N4C2=O)[C@H](C)N(C(=O)c2cc4cc([C@H]5CCOC(C)(C)C5)ccc4n2[C@@]2(c4noc(=O)[nH]4)C[C@@H]2C)CC3)cc(C)c1F [Compound 29, (R)-2-((S)-5-(5-((S)-2,2-dimethyltetrahydro-2H-pyran-4-yl)-1-((1S,2S)-2-methyl-1-(5-oxo-4,5-dihydro-1,2,4-oxadiazol-3-yl)cyclopropyl)-1H-indole-2-carbonyl)-2-(4-fluoro-3,5-dimethylphenyl)-4-methyl-4,5,6,7-tetrahydro-2H-pyrazolo[4,3-c]pyridin-3-yl)-10-fluoro-7-(2,2,2-trifluoroethyl)-2,3,3a,4-tetrahydro-1H,7H-imidazo[1',5':4,5][1,4]oxazino[3,2-f]indazol-1-one]",0.02 nM,19.58 fold,
